Test results reported in patent US10464941B2, “Therapeutic compounds” (REGENTS OF THE UNIVERSITY OF MINNESOTA, priority 2015, dated 2019).

How the values were obtained:
[1] = test system: IL-6; experiment: Proinflammatory cytokine IL-6 ELISA in LPS-stimulated microglia (BV2); type: cell-based, murine
Method: Murine primary microglia cell line (BV2) were cultured in DMEM with 10% heat-inactivated fetal bovine serum (FBS), 100 U/ml penicillin, 100 μg/ml streptomycin, 10 μg/ml gentamycin (all from Invitrogen, CA, USA). Cells were harvested on reaching 80% to 90% confluence by treating with 0.25% trypsin containing 1 mM EDTA for 5 minutes at 37° C. Cells (20,000/200 μl) were seeded on flat bottom 96 well plates and treated for 3 hrs with equimolar concentration (200 nM) of MCC22/Minocycline for 3 hrs followed by overnight treatment with LPS (1 μg/ml). At the end of the experiment, IL-6 was estimated by Sandwich ELISA using mouse IL-6 DuoSet kit (R&D Systems, Minneapolis, Minn.) in the culture supernatant.

[2] = test system: LPS-pretreated mice; experiment: Effect of minocycline on MCC22 antinociception in LPS-pretreated mice (tail flick); type: in vivo; settings: for MPE after minocycline: MCC22 1 pmol/mouse i.t.
Method: Effect of Minocycline in Mice Pretreated by LPS and Blockage of Antinociception of MCC22.
Three separate groups of mice (n=8) were pretreated with 1 mg/kg of LPS (i.p.). At 24 hours the baseline antinociception was measured using the tail flick assay to calculate % MPE. […] […] The dose used for MCC22 is a hundred times the ED50 dose of LPS pretreated mice with MCC22.

Compound: Cc1ccc(N(CCCN2CCC(Cc3ccc(C(N)=O)cc3)CC2)C(=O)C2CCN(C(=O)COCC(=O)NCCCCCCCCCCNC(=O)COCC(=O)N[C@H]3CC[C@@]4(O)C5Cc6ccc(O)c7c6[C@@]4(CCN5C)[C@H]3O7)CC2)cc1Cl [Compound 3e, N-(3-(4-(4-carbamoylbenzyl)piperidin-1-yl)propyl)-N-(3-chloro-4-methylphenyl)-1-(22-(((4aS,7S,7aR,12bS)-4a,9-dihydroxy-3-methyl-2,3,4,4a,5,6,7,7a-octahydro-1H-4,12-methanobenzofuro[3,2-e]isoquinolin-7-yl)amino)-5,18,22-trioxo-3,20-dioxa-6,17-diazadocosan-1-oyl)piperidine-4-carboxamide]
- attenuation of IL-6 secretion ([1]; 200 nM, 3 hrs pretreatment, LPS 1 μg/ml overnight, microglial supernatant): ~30%
- IL-6 secretion when combined with minocycline ([1]; MCC22 combined with minocycline, LPS): further attenuated
- MPE after minocycline ([2]; 60 min after minocycline 45 mg/kg i.p., LPS pretreated): 100%
- MPE after minocycline ([2]; 120 min after minocycline 45 mg/kg i.p., LPS pretreated): 52.04%±17.04
- MPE after minocycline ([2]; 240 min after minocycline 45 mg/kg i.p., LPS pretreated): 10.7%±5.17
- % MPE ([2]; LPS 24 hours, minocycline 4 hours, 1000 pmol/mouse MCC22): 49.35±14.38 % MPE
- FIG. 4 LPS/minocycline/MCC22 (value with interval) ([2]; LPS pretreated, minocycline 45 mg/kg i.p. prior to testing): 1016 (54-1558)
